Columns and labels:
HepG2 cells = experiment: MTT cell viability assay, HepG2; type: cell-based; settings: Homo sapiens, Table S2
Procedure: (§1) Initially, all synthesized acridone derivatives were evaluated for their cytotoxicity potential on MCF-7, HepG2 and HEK293 cell lines by MTT assay. These synthesized acridone derivatives were screened in the concentration range of 0–200 µM, for 24 and 48 h. […] It was also interesting that in the studied […] concentration range these compounds don’t show considerable cytotoxicity towards HEK293 cell lines. […] Thus, compounds 5, 7b, 7d, 7f and 7h were taken for further cell based studies such as apoptosis and reactive oxygen species (ROS) production.
(§2) To study the effect of synthesized acridone derivatives on cell viability and proliferation, a standard MTT method was carried out. Cells were plated (8000–9000/well) in a 96-well plate and incubated overnight. On the next day, cells were treated with increasing concentrations (0.1–80 μM) of synthesized acridone derivatives in a final volume of 200 µl for 48 h at 37 °C in a humidified chamber. At the end of treatment time point, 20 µl of MTT solution (from 5 mg/ml stock solution in phosphate buffer saline, pH 7.4) was added to each well and incubated further for 4–5 h at 37 °C in the CO2 incubator. After stipulated time the supernatant was aspirated and the colored formazan crystal produced as a result of MTT reduction was dissolved in 100 µl of DMSO. The absorbance (A) of colored product was then measured at 570 nm on a multiplate ELISA reader (BioRad). The percentage of viable cells was calculated and used to estimate the IC50 (50% inhibitory concentration) values for each acridone derivative. For cell proliferation studies paclitaxel has been taken as positive control.

HEK293 cells = experiment: MTT cell viability assay, HEK293; type: cell-based; settings: Homo sapiens, Table S2
Procedure: as §1, §2

MCF-7 cells = experiment: Annexin-V apoptosis assay by flow cytometry; type: cell-based, human; settings: IC50 concentration, 24 h, annexin-V staining
Procedure: Evasion of apoptosis is a striking hallmark of cancerous cells, it is an essential process that regulates abnormal growth of cells, but compromised signaling helps the cancerous cells to escape apoptosis. MARK4 overexpression also supports the growth and evasion of cancerous cells. Thus, the probability of apoptosis induction by inhibiting MARK4 was studied. The MCF-7 cells were serum starved and treated with IC50 concentration of each acridone derivative for 24 h and subsequently annexin-V staining was used to assess the apoptotic potential of these compounds.
Figure 6 MARK4 inhibition by selected acridone derivatives induces apoptosis, elicited oxidative stress by inducing ROS production in MCF-7 cells. MCF-7 cells were treated with IC50 concentrations of each compound for 24 h and processed for apoptosis analysis using Annexin V-7AAD apoptosis kit by flow cytometry. (A) Quadrants showing the anti-FITC-Annexin-V stained cells after the treatment of each compound as indicated. (B) Bar graphs represents the percentage of apoptotic MCF-7 cells attained with Annexin-V for duplicate measurements ± SD. **p < 0.001, as compared to control (untreated cells). (For anticancer activities paclitaxel has been taken as positive control). (C) Histogram showing the fluorescence emission intensity of DCF as measured by flow cytometry, MCF-7 cells were treated with IC50 concentrations of each compound for 5–6 h and processed for ROS measurements using DCFDA staining and were quantified by flow cytometry. (D) Representative images of MCF-7 cells stained with DCFDA captured on fluorescence microscope (20 X original magnification) for the assessment of ROS after the treatment of respective compound and intensity of green color represents the levels of ROS.
Annexin-V staining was used to analyse the apoptotic potential of synthesized acridone derivatives as described previously[47],[48]. Briefly, MCF-7 cells were dosed with IC50 concentration of selected acridone derivative for 24 h at 37 °C. The control cells were treated with media only. After 24 h treatment, nearly 2.0–2.5 × 10^6 cells were trypsinized and collected by centrifuging the cell suspension at 1800 rpm for 4 min. Collected cells were washed two times with 5 ml of PBS. Finally, cells were stained with FITC labeled Annexin-V antibodies using FITC-Annexin-V kit according to the manufacturer’s guidelines (BD-Biosciences, USA). Approximately, 10,000 events were analyzed for each sample through flow cytometry on BD LSR II Flow Cytometry Analyzer and FlowJo.

Row | SMILES | IC50 (HepG2 cells) [µM] | IC50 (HEK293 cells) [µM] | apoptosis induced in MCF-7 cells (MCF-7 cells) [%]
1 | Cc1ccc(NC(=O)Cn2c3ccccc3c(=O)c3cc(C)ccc32)cc1 [Compound 7f, 2-(2-Methyl-9-oxoacridin-10(9H)-yl)-N-(p-tolyl)acetamide] | 15.2 | > 200 | 41.35
2 | COC(=O)Cn1c2ccccc2c(=O)c2cc(C)ccc21 [Compound 5, Methyl 2-(2-methyl-9-oxoacridin-10(9H)-yl)acetate] | 16.4 | > 200 | 17.91

More lines, main results first:

Row | IC50 (HepG2 cells) [µM] | SMILES | IC50 (HEK293 cells) [µM] | apoptosis induced in MCF-7 cells (MCF-7 cells) [%]
3 | 15.1 | COc1ccc(CNC(=O)Cn2c3ccccc3c(=O)c3cc(C)ccc32)cc1 [Compound 7d, N-(4-methoxybenzyl)-2-(2-methyl-9-oxoacridin-10(9H)-yl)acetamide] | > 200 | 43.10
4 | 13.6 | Cc1ccc2c(c1)c(=O)c1ccccc1n2CC(=O)NCc1ccccc1 [Compound 7b, N-benzyl-2-(2-methyl-9-oxoacridin-10(9H)-yl)acetamide] | > 200 | 69.23
5 | 19 | COc1ccccc1NC(=O)Cn1c2ccccc2c(=O)c2cc(C)ccc21 [Compound 7h, N-(2-methoxyphenyl)-2-(2-methyl-9-oxoacridin-10(9H)-yl)acetamide] | > 200 | 21.53

From PMC6368574, “Probing the Inhibition of Microtubule Affinity Regulating Kinase 4 by N-Substituted Acridones” (Scientific Reports, 2019)
